According to ChEMBL document CHEMBL4043153, “Lead selection of antiparasitic compounds from a focused library of benzenesulfonyl derivatives of heterocycles” (Bioorg Med Chem Lett, 2017):
The source made the active and inactive calls. The calls are words filed in the database; no cut-off is given here.

Experiments:
Plasmodium falciparum [1] = test: (§1) Antiparasitic activity against intraerythrocytic form of chloroquine/pyrimethamine-resistant Plasmodium falciparum K1 infected in human RBC assessed as growth inhibition at 4.8 ug/ml preincubated for 48 hrs followed by [3H]-hypoxanthine addition measured after 24 hrs by liquid scintillation counting analysis relative to control; assay type: functional; conditions: read-out: GI
Trypanosoma cruzi [2] = test: Antiparasitic activity against Trypanosoma cruzi Tulahuen C4 intracellular amastigotes infected in rat L6 cells assessed as growth inhibition at 0.8 ug/ml after 96 hrs by CPRG/Nonidet reagent based photometric analysis relative to control; assay type: functional; conditions: Tulahuen C4, L6, 96 h, read-out: GI
[3] = test system: Trypanosoma brucei rhodesiense; test: Antiparasitic activity against Trypanosoma brucei rhodesiense STIB 900 trypomastigote bloodstream form assessed as growth inhibition at 4.8 ug/ml after 72 hrs by resazurin dye-based fluorometric analysis relative to control; assay type: functional; conditions: STIB 900, 72 h, read-out: GI
Leishmania donovani [4] = test: Antiparasitic activity against Leishmania donovani MHOM-ET-67/L82 axenic amastigotes assessed as growth inhibition at 0.8 ug/ml after 72 hrs by resazurin dye-based fluorometric analysis relative to control; assay type: functional; conditions: MHOM-ET-67/L82, 72 h, read-out: GI
Leishmania donovani [5] = test: Antiparasitic activity against Leishmania donovani MHOM-ET-67/L82 axenic amastigotes assessed as growth inhibition at 4.8 ug/ml after 72 hrs by resazurin dye-based fluorometric analysis relative to control; assay type: functional; conditions: MHOM-ET-67/L82, 72 h, read-out: GI
[6] = test system: Trypanosoma brucei rhodesiense; test: Antiparasitic activity against Trypanosoma brucei rhodesiense STIB 900 trypomastigote bloodstream form assessed as growth inhibition at 0.8 ug/ml after 72 hrs by resazurin dye-based fluorometric analysis relative to control; assay type: functional; conditions: STIB 900, 72 h, read-out: GI
Plasmodium falciparum [7] = test: as §1, with “0.8” for “4.8”; assay type: functional; conditions: read-out: GI
Trypanosoma cruzi [8] = test: Antiparasitic activity against Trypanosoma cruzi Tulahuen C4 intracellular amastigotes infected in rat L6 cells assessed as growth inhibition at 4.8 ug/ml after 96 hrs by CPRG/Nonidet reagent based photometric analysis relative to control; assay type: functional; conditions: Tulahuen C4, L6, 96 h, read-out: GI
Plasmodium falciparum [9] = test: Antiparasitic activity against intraerythrocytic form of chloroquine/pyrimethamine-resistant Plasmodium falciparum K1 infected in human RBC preincubated for 48 hrs followed by [3H]-hypoxanthine addition measured after 24 hrs by liquid scintillation counting analysis; assay type: functional
Trypanosoma cruzi [10] = test: Antiparasitic activity against Trypanosoma cruzi Tulahuen C4 intracellular amastigotes infected in rat L6 cells after 96 hrs by CPRG/Nonidet reagent based photometric analysis; assay type: functional, cell-based; conditions: Tulahuen C4, L6, 96 h
[11] = Selectivity index, ratio of IC50 for rat L6 cells to IC50 for Trypanosoma cruzi Tulahuen C4 intracellular amastigotes infected in rat L6 cells; assay type: toxicity, cell-based; conditions: read-out: Ratio IC50
L6 = test: Cytotoxicity against rat L6 cells assessed as cell viability after 72 hrs by Alamar blue assay; assay type: cell-based; conditions: L6, 72 h

O=S(=O)(c1cccc(C(F)(F)F)c1)n1ccc2ccccc21
inhibition of growth at 4.8 µg/mL (Plasmodium falciparum [1]): 61.1%
inhibition of growth at 0.8 µg/mL (Trypanosoma cruzi [2]): 0%
inhibition of growth at 4.8 µg/mL [3]: 0%
inhibition of growth at 0.8 µg/mL (Leishmania donovani [4]): 11.7%
inhibition of growth at 4.8 µg/mL (Leishmania donovani [5]): 45.7%
inhibition of growth at 0.8 µg/mL [6]: 0%
inhibition of growth at 0.8 µg/mL (Plasmodium falciparum [7]): 5%
inhibition of growth at 4.8 µg/mL (Trypanosoma cruzi [8]): 3.3%

O=S(=O)(c1ccc(Br)cc1)n1ccc2ccccc21
inhibition of growth at 4.8 µg/mL (Plasmodium falciparum [1]): 45.9%
inhibition of growth at 0.8 µg/mL (Trypanosoma cruzi [2]): 0%
inhibition of growth at 4.8 µg/mL [3]: 0%
inhibition of growth at 0.8 µg/mL (Leishmania donovani [4]): 11.5%
inhibition of growth at 4.8 µg/mL (Leishmania donovani [5]): 48.1%
inhibition of growth at 0.8 µg/mL [6]: 0%
inhibition of growth at 0.8 µg/mL (Plasmodium falciparum [7]): 0%
inhibition of growth at 4.8 µg/mL (Trypanosoma cruzi [8]): 0%

CC1CCc2ccccc2N1S(=O)(=O)c1ccccc1[N+](=O)[O-] (stereo not drawn)
inhibition of growth at 4.8 µg/mL (Plasmodium falciparum [1]): 67.5%
inhibition of growth at 0.8 µg/mL (Trypanosoma cruzi [2]): 7.6%
inhibition of growth at 4.8 µg/mL [3]: 2.7%
inhibition of growth at 0.8 µg/mL (Leishmania donovani [4]): 22.4%
inhibition of growth at 4.8 µg/mL (Leishmania donovani [5]): 66.3%
inhibition of growth at 0.8 µg/mL [6]: 0.4%
inhibition of growth at 0.8 µg/mL (Plasmodium falciparum [7]): 8.8%
inhibition of growth at 4.8 µg/mL (Trypanosoma cruzi [8]): 43.7%

O=[N+]([O-])c1ccc(S(=O)(=O)n2ccc3ccccc32)cc1
inhibition of growth at 4.8 µg/mL (Plasmodium falciparum [1]): 60.4%
inhibition of growth at 0.8 µg/mL (Trypanosoma cruzi [2]): 18.3%
inhibition of growth at 4.8 µg/mL [3]: 29.3%
inhibition of growth at 0.8 µg/mL (Leishmania donovani [4]): 24.2%
inhibition of growth at 4.8 µg/mL (Leishmania donovani [5]): 77.6%
Activity (Plasmodium falciparum [9]): Active
inhibition of growth at 0.8 µg/mL [6]: 8.6%
inhibition of growth at 0.8 µg/mL (Plasmodium falciparum [7]): 2.5%
inhibition of growth at 4.8 µg/mL (Trypanosoma cruzi [8]): 75%

O=[N+]([O-])c1cccc(S(=O)(=O)N2CCc3ccccc32)c1
inhibition of growth at 4.8 µg/mL (Plasmodium falciparum [1]): 79.2%
IC50 (Trypanosoma cruzi [10]): 1.08 µM
inhibition of growth at 0.8 µg/mL (Trypanosoma cruzi [2]): 36.4%
selectivity ratio [11]: 14
inhibition of growth at 4.8 µg/mL [3]: 4.3%
inhibition of growth at 0.8 µg/mL (Leishmania donovani [4]): 15.9%
inhibition of growth at 4.8 µg/mL (Leishmania donovani [5]): 95.4%
inhibition of growth at 0.8 µg/mL [6]: 0%
inhibition of growth at 0.8 µg/mL (Plasmodium falciparum [7]): 14.7%
IC50 (L6): 15.1 µM
inhibition of growth at 4.8 µg/mL (Trypanosoma cruzi [8]): 100%

CC1Cc2ccccc2N1S(=O)(=O)c1ccc(F)cc1 (stereo not drawn)
inhibition of growth at 4.8 µg/mL (Plasmodium falciparum [1]): 65%
inhibition of growth at 0.8 µg/mL (Trypanosoma cruzi [2]): 0%
inhibition of growth at 4.8 µg/mL [3]: 0%
inhibition of growth at 0.8 µg/mL (Leishmania donovani [4]): 4%
inhibition of growth at 4.8 µg/mL (Leishmania donovani [5]): 47%
inhibition of growth at 0.8 µg/mL [6]: 2.3%
inhibition of growth at 0.8 µg/mL (Plasmodium falciparum [7]): 12.6%
inhibition of growth at 4.8 µg/mL (Trypanosoma cruzi [8]): 4.8%

O=S(=O)(c1ccc(C(F)(F)F)cc1)n1ccc2ccccc21
inhibition of growth at 4.8 µg/mL (Plasmodium falciparum [1]): 53.2%
inhibition of growth at 0.8 µg/mL (Trypanosoma cruzi [2]): 0%
inhibition of growth at 4.8 µg/mL [3]: 0%
inhibition of growth at 0.8 µg/mL (Leishmania donovani [4]): 15.9%
inhibition of growth at 4.8 µg/mL (Leishmania donovani [5]): 52.8%
inhibition of growth at 0.8 µg/mL [6]: 1.4%
inhibition of growth at 0.8 µg/mL (Plasmodium falciparum [7]): 4.3%
inhibition of growth at 4.8 µg/mL (Trypanosoma cruzi [8]): 0%

O=[N+]([O-])c1ccccc1S(=O)(=O)n1nnc2ccccc21
inhibition of growth at 4.8 µg/mL (Plasmodium falciparum [1]): 0%
inhibition of growth at 0.8 µg/mL (Trypanosoma cruzi [2]): 7.3%
inhibition of growth at 4.8 µg/mL [3]: 1.3%
inhibition of growth at 0.8 µg/mL (Leishmania donovani [4]): 32.7%
inhibition of growth at 4.8 µg/mL (Leishmania donovani [5]): 89.4%
inhibition of growth at 0.8 µg/mL [6]: 0%
inhibition of growth at 0.8 µg/mL (Plasmodium falciparum [7]): 0%
inhibition of growth at 4.8 µg/mL (Trypanosoma cruzi [8]): 7.1%

O=[N+]([O-])c1ccccc1S(=O)(=O)N1CCc2ccccc21
inhibition of growth at 4.8 µg/mL (Plasmodium falciparum [1]): 48%
inhibition of growth at 0.8 µg/mL (Trypanosoma cruzi [2]): 0%
inhibition of growth at 4.8 µg/mL [3]: 17.9%
inhibition of growth at 0.8 µg/mL (Leishmania donovani [4]): 4%
inhibition of growth at 4.8 µg/mL (Leishmania donovani [5]): 81.5%
inhibition of growth at 0.8 µg/mL [6]: 10.4%
inhibition of growth at 0.8 µg/mL (Plasmodium falciparum [7]): 4%
inhibition of growth at 4.8 µg/mL (Trypanosoma cruzi [8]): 24.5%

O=S(=O)(c1ccc(Br)cc1)N1CCc2ccccc21
inhibition of growth at 4.8 µg/mL (Plasmodium falciparum [1]): 63.5%
inhibition of growth at 0.8 µg/mL (Trypanosoma cruzi [2]): 4.2%
inhibition of growth at 4.8 µg/mL [3]: 0%
inhibition of growth at 0.8 µg/mL (Leishmania donovani [4]): 17.9%
inhibition of growth at 4.8 µg/mL (Leishmania donovani [5]): 77.7%
inhibition of growth at 0.8 µg/mL [6]: 5.3%
inhibition of growth at 0.8 µg/mL (Plasmodium falciparum [7]): 9.8%
inhibition of growth at 4.8 µg/mL (Trypanosoma cruzi [8]): 28.1%

O=S(=O)(c1ccc(C(F)(F)F)cc1)N1CCc2ccccc21
inhibition of growth at 4.8 µg/mL (Plasmodium falciparum [1]): 59.8%
inhibition of growth at 0.8 µg/mL (Trypanosoma cruzi [2]): 3.4%
inhibition of growth at 4.8 µg/mL [3]: 0%
inhibition of growth at 0.8 µg/mL (Leishmania donovani [4]): 12.6%
inhibition of growth at 4.8 µg/mL (Leishmania donovani [5]): 68.8%
inhibition of growth at 0.8 µg/mL [6]: 2.2%
inhibition of growth at 0.8 µg/mL (Plasmodium falciparum [7]): 0%
inhibition of growth at 4.8 µg/mL (Trypanosoma cruzi [8]): 10.8%

O=S(=O)(c1ccc(Cl)cc1)N1CCc2ccccc21
inhibition of growth at 4.8 µg/mL (Plasmodium falciparum [1]): 63.7%
inhibition of growth at 0.8 µg/mL (Trypanosoma cruzi [2]): 0%
inhibition of growth at 4.8 µg/mL [3]: 0%
inhibition of growth at 0.8 µg/mL (Leishmania donovani [4]): 6.9%
inhibition of growth at 4.8 µg/mL (Leishmania donovani [5]): 73.6%
inhibition of growth at 0.8 µg/mL [6]: 0%
inhibition of growth at 0.8 µg/mL (Plasmodium falciparum [7]): 3.7%
inhibition of growth at 4.8 µg/mL (Trypanosoma cruzi [8]): 1.5%

CC(C)(C)c1ccc(S(=O)(=O)N2CCc3ccccc3C2)cc1
inhibition of growth at 4.8 µg/mL (Plasmodium falciparum [1]): 86%
inhibition of growth at 0.8 µg/mL (Trypanosoma cruzi [2]): 0%
inhibition of growth at 4.8 µg/mL [3]: 8.7%
inhibition of growth at 0.8 µg/mL (Leishmania donovani [4]): 31.6%
inhibition of growth at 4.8 µg/mL (Leishmania donovani [5]): 100%
inhibition of growth at 0.8 µg/mL [6]: 10.8%
inhibition of growth at 0.8 µg/mL (Plasmodium falciparum [7]): 11.6%
inhibition of growth at 4.8 µg/mL (Trypanosoma cruzi [8]): 26.7%
